Here are results for 2 compounds from patent US11326183B2, “VCN enhancer compositions and methods of using the same” (priority 2016, dated 2022).

Entries after “also recorded” stand apart in the source; their conditions may differ.

Data set [1] concerns hCD34+ cells. The experiment in a line: VCN of pooled colonies after 14 day MethoCult culture, staurosporine and/or PGE2. The data set is classed as cell-based, human. The following applies: for VCN compared to controls or other treatments, in words: mean VCN. On the procedure:
(§1) Washed cells were resuspended in 200 μL SCGM and then transferred to 3 mL aliquots of cytokine-supplemented methylcellulose (for example, Methocult M4434 Classic). 1.1 mL was then transferred to parallel 35-mm tissue culture dishes using a blunt 16-gauge needle. Dishes were maintained in a standard humidified tissue culture incubator for 12-16 days and colonies were scored for size, morphology, and cellular composition. Individual colonies were then picked for subsequent VCN analysis or the contents of an entire 35-mm dish were pooled and then subject to VCN analysis.
Cells were then transduced with LVV and cultured in the presence of protamine sulfate (standard), PGE2 or vehicle. After transduction, cells were washed and cultured in MethoCult for 14 days.
After a 14 day MethoCult culture, pooled colonies were collected and analyzed for VCN. Mean VCN data is shown. […] FIG. 8.

Data set [2] deals with hCD34+ cells. The experiment in a line: Vector copy number (VCN) analysis of hCD34+ cells transduced with LVV after staurosporine treatment. The data set is classed as cell-based, human. On the procedure:
(§2) Washed cells were resuspended in 2 mL Stem Cell Growth Medium (SCGM)+cytokines and transferred to a standard 12-well non-adherent tissue culture plate. Cells were maintained for an additional 6 days in a standard humidified tissue culture incubator (5% CO2) and then subjected to Vector Copy Number (VCN) analysis or single-cell nested PCR to determine transduction efficiency. Both VCN and the single-cell nested PCR assay were performed with qPCR using primers and probes specific to both the vector and an endogenous control gene. VCN was determined by dividing the amount of vector signal by the amount of the endogenous control gene. For the single-cell nested PCR assay, wells that contained a cell positive for the endogenous control gene and wells that contained a marked cell positive for both the vector and the endogenous control gene were enumerated, and the proportion of marked cells, or transduction efficiency, was calculated.
as §1
Cells transduced for 2 hours were then subjected to staining and flow analysis for the BLAM assay to quantify viral entry. […] FIG. 1A. […] FIGS. 1B and 1C.
These seven cell lots had been prospectively classified as low, medium, or high transducing cell lots. A low transducing cell lot is defined here as having a mean VCN <0.5 in vehicle-treated transductions, a medium transducing cell lot is defined here as having a mean 0.5<VCN<1, and a high transducing cell lot is defined here as having a mean VCN>1. […] This property of leveling average VCN among cell lots with different transducibility could aid in controlling variability between cell lots and normalizing drug product VCNs.
(§3) Following transduction, cells were washed and injected into busulfan-treated NSG mice. Aliquots of the drug product were retained for in vitro analysis. […] FIG. 4A. […] FIG. 4A. After 4 months in vivo, NSG mice were sacrificed and BM was collected and analyzed for VCN of the engrafted hCD34+ cells. There was an overall decrease in mean VCNs across all groups in vivo as compared to the drug product VCNs, indicating higher transduction of short-term progenitors rather than long-term stem cells. FIG. 4B.

Data set [3] deals with long-term NSG repopulating cells. The experiment in a line: VCN of bone marrow from NSG mice 4 months post-transplant of transduced hCD34+ cells. Type of data set: in vivo.
Source text: (§4) HSCs transduced with lentivirus were transplanted into NOD/SCID Gamma (NSG) mice to assess the effect of candidate compounds on viral transduction of human long-term hematopoietic stem cells. Transduced cells were washed and resuspended in phosphate-buffered saline (PBS) and transplanted into the tail vein of sub-myeloablated adult NSG mice, with minimal residual toxicity. Mice were housed in a pathogen-free environment per standard IACUC animal care guidelines. At 4 months post-transplant bone marrow (BM) was harvested from both femurs and analyzed for both VCN and engraftment of human cells by staining with an anti-hCD45 antibody (BD #561864) followed by flow cytometry analysis.
as §3

For the next data set, the system named is hCD34+ grafts. The experiment in a line: Non-restrictive insertion site analysis (polyclonality).
Data set [4] has as its system hCD34+ cells. The experiment in a line: Methylcellulose assay for CFC formation (stem cell potential). Type of data set: cell-based, human. On the procedure:
as §1
For the 2 hour incubation, cells were subsequently washed and cultured in transduction media for the remaining 24 hours. Following the cultures, cells were plated in methylcellulose for CFC formation. […] FIG. 2B. […] FIG. 2A.

In data set [5] the test system is hCD34+ cells. The experiment in a line: BlaM (BLAM) assay for assessment of viral entry. Type of data set: cell-based, human. On the procedure:
Cells were transduced for 2 hours in the presence of F108, PGE2, and a virus encoding a β-lactamase-Vpr fusion protein. Following transduction, cells were washed and incubated with a fluorescent β-lactamase substrate for 30-60 minutes. β-lactamase cleavage was analyzed by flow cytometry: uncleaved substrate is GFP^+, and cleavage of the fluorescent β-lactamase results in a Pacific Blue^+ signal. β-lactamase cleavage indicates lentivirus entry into the cell. See also, Cavrois et al. Nature Biotechnology. 2002.
Cells transduced for 2 hours were then subjected to staining and flow analysis for the BLAM assay to quantify viral entry. […]. FIGS. 1B and 1C.

The subject of data set [6] is hCD34+ cells. The experiment in a line: Transgene (LNGFR) expression by flow cytometry. Type of data set: cell-based, human. Particulars: 200 nM staurosporine 2 hours, 24 hour transduction. (Flow cytometry measures light scatter and fluorescence of single cells or particles in a stream.)
The subject of data set [7] is bulk hCD34+ cells and CD34+CD38LoCD90+CD45RA- phenotypic stem cells. The experiment in a line: Single-cell PCR assay of transduction efficiency in bulk and CD34+CD38LoCD90+CD45RA- cells. The data set is classed as cell-based, human. The following applies: 400 nM or 800 nM staurosporine 2 hours. The method, then:
as §2
Thawed hCD34+ cells were stained with antibodies against cell surface markers for phenotypic HSCs (CD34^+CD38^LoCD90^+CD45^RA− cells) and then sorted using a Sony Cell Sorter. […] After culture, the cells were then single-cell sorted into 96 well plates and analyzed via the single-cell PCR assay to assess transduction efficiency, the percent lentiviral vector positive cells. […]

In data set [8] the test system is transplanted hCD34+ cells. The experiment in a line: Engraftment and differentiation of transplanted hCD34+ cells in NSG mice (flow cytometry of BM). The data set is classed as in vivo. Particulars: BM four months post-transplant.
Source text: as §4
Cells were stained with an antibody cocktail recognizing various cell surface markers (CD45, CD33, CD3, CD19) and analyzed via flow cytometry. […] FIG. 5B.

Source text for hCD34+ grafts: Identified insertion sites were mapped within gene regions to examine the lentiviral integration profile. […] Insertion sites were also quantified as the percent of total reads. The top 10 clones are shown for each treatment.
Insertion sites were pooled for each group and quantified as the percent of total reads. The top 10 clones are shown for each treatment.

On to `CCCCC[C@H](O)/C=C/[C@H]1[C@H](O)CC(=O)[C@@H]1C/C=C\CCCC(=O)O` [PGE2, prostaglandin E2], for which the “VCN compared to controls or other treatments, in words” value with hCD34+ cells [1] was “increased VCN compared to controls”.

For the compound `CN[C@@H]1C[C@H]2O[C@@](C)([C@@H]1OC)n1c3ccccc3c3c4c(c5c6ccccc6n2c5c31)C(=O)NC4` [staurosporine, Staurosporine], the “VCN compared to controls or other treatments, in words” value in the data set with hCD34+ cells [1] is “increased VCN compared to controls; also recorded: outperforms PGE2 addition”. Further, the “fold increase in VCN” value in the data set on hCD34+ cells [1] (staurosporine two hours before transduction) is recorded as 3 fold. In the data set with hCD34+ cells [2] (200 nM staurosporine 2 hours, washed, 24 hour transduction), the “fold increase in (mean) VCN versus control” value came out at 2 fold. Further, the “mean VCN of the drug product, in words” value in the data set with hCD34+ cells [2] (400 nM staurosporine 2 hours) is “did not significantly improve the mean VCN”; in the data set on hCD34+ cells [2] (800 nM staurosporine), “VCN enhancement”. The “fold improvement in mean VCN of the drug product (pooled colonies) versus vehicle” value in the data set on hCD34+ cells [2] (800 nM staurosporine 2 hours) is reported as “approximately 2 fold”. Besides, the “fold increase in average VCN” value in the data set with hCD34+ cells [2] (800 nM staurosporine 2 hours, high transducing cell lots (mean VCN>1)) is on record as 1.2 fold; in the data set on hCD34+ cells [2] (800 nM staurosporine 2 hours, low transducing cell lots (mean VCN <0.5)), 2.3 fold; in the data set with hCD34+ cells [2] (800 nM staurosporine 2 hours, medium transducing cell lots (0.5<VCN<1)), 1.5 fold. Also, the “effect of increasing staurosporine concentration on VCN enhancement” value in the data set with hCD34+ cells [2] (200, 400, 800 nM, high transducing cell lots) is listed as “plateaus”. Also, the “effect of increasing staurosporine concentration on mean VCN” value with hCD34+ cells [2] (200, 400, 800 nM, low and medium transducing cell lots) is reported as “trend for increasing mean VCN”. Further, the “fold improvement in mean in vivo VCN of BM relative to vehicle” value amounted to 3 fold in [3] (400 nM staurosporine prior to transduction) and 4 fold in data set [3] (800 nM staurosporine prior to transduction). Besides, in the data set with hCD34+ grafts (BM four months post-transplant, top 10 clones), the “clonality of engrafted cells (insertion site profile)” value is reported as “polyclonal insertion site profile similar to vehicle treated cells”. Moreover, the “lentiviral integration profile of transduced cells” value in the data set with hCD34+ grafts (pre-transplant drug product, insertion sites mapped within gene regions) is “did not appear to skew”. Further, in the data set on hCD34+ grafts (pre-transplant drug product, top 10 clones as percent of total reads), the “clonality of pre-transplantation samples” value is “polyclonality”. Also, the colony formation ability entry in the data set with hCD34+ cells [4] (2 hour exposure, 200 nM, 400 nM or 800 nM) is “retain colony formation ability and do not significantly differ from control-treated cells; also recorded: did not affect the ability of the hCD34^+ cells to form colonies”. In the data set on hCD34+ cells [4] (24 hour exposure, 800 nM), the colony-forming potential result is “few hCD34^+ cells that retain colony-forming potential”. The “decrease in CFC formation” value with hCD34+ cells [4] (24 hour exposure, lower doses (200 nM, 400 nM)) was over 50%. The “reduction in CFC formation” value in the data set on hCD34+ cells [4] (24 hours exposure, 3 different concentrations of staurosporine) was over 50%. In the data set with hCD34+ cells [5] (200 nM staurosporine 2 hours, washed, 2 hour transduction), the “increase in the amount of cells containing LVV compared to vehicle-treated controls” value is given as about 50%. Besides, the “percentage of cells containing vector by BLAM assay, fold higher than controls” value in the data set on hCD34+ cells [5] (staurosporine-treated hCD34+ cells, two MOIs) came to 1.5 fold. Further, the “fold increase in transgene expression (LNGFR)” value in the data set on hCD34+ cells [6] is 1.5 fold. Also, the “transduction efficiency (percent lentiviral vector positive cells) versus standard transduction” value in data set [7] is “increased transduction efficiency compared to standard transduction conditions; also recorded: higher than the transduction efficiency of the cells transduced using the standard transduction protocol”. In addition, in data set [8] (400 nM or 800 nM), the “effect of staurosporine treatment on engraftment” value is reported as “does not affect engraftment; also recorded: no statistically significant effect”. Further, the “proportion of myeloid (CD33+) or lymphoid (CD3+ or CD19+) cells / differentiation capabilities” value in data set [8] (400 nM or 800 nM) is “is maintained; also recorded: no difference”. Besides, the “level of engraftment of hCD34+ cells” value in data set [8] (all groups (vehicle, 400 nM, 800 nM staurosporine)) was 30-40%.
